Tests used:
RBE cells = test: Cell Viability Protocol (CellTiterGlo), RBE cells; format: cell-based; conditions: RBE or SNU-1079 cells, 72 or 120 hour, cell line and time not given
In short: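 After 72 h or 120 h compound exposure at 37° C, viability was read by CellTiterGlo as % of DMSO vehicle, with IC50 fitted by a 4-parameter curve. Cells had been seeded at 1200/well in 10% FBS RPMI 1640 and allowed 24 h before dosing.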

SRC = SRC (Homo sapiens, UniProt P12931); test: SRC Biochemical Assay Protocol (microfluidic mobility shift assay, FLPeptide4 substrate)
SRC, sequence (P12931 whole entry, species assumed): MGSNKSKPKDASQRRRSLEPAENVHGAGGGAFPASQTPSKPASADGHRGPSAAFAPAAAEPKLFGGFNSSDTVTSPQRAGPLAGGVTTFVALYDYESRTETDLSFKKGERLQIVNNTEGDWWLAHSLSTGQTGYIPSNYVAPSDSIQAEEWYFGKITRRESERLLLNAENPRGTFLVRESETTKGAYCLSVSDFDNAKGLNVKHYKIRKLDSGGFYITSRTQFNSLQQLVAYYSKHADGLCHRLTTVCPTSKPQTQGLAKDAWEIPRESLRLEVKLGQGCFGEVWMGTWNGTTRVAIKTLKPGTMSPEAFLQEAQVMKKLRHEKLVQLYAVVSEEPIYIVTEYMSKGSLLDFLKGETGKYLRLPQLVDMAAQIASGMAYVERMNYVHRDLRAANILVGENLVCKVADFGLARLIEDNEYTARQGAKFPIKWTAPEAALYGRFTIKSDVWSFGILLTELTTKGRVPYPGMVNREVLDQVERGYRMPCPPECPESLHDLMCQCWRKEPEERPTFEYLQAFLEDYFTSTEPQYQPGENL
In short: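 Mobility-shift readout of phosphorylated FLPeptide4 (1.5 μM) after 90 min kinase reaction with 50 μM ATP and 0.26 nM SRC in pH 7.4 HEPES buffer. Compounds, tested 0.0017–100 μM, were preincubated 30 min with enzyme and peptide; IC50 from 4-parameter logistic fit versus neutral controls.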

[1] = test system: phospho-S6RP (Ser 235/236) in RBE cells; test: Cellular Proliferation Protocol (cellular phospho-S6RP HTRF), RBE cells; format: cell-based; conditions: 6 h, 6 hours treatment, RBE or SNU-1079 cells, cell line not given
In short: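 Phospho-S6RP (Ser 235/236) was quantified by HTRF in lysed RBE cells (2000/well) after a 6 h treatment at 37° C, with overnight antibody incubation at room temperature. IC50 values came from 4-parameter dose-response fits relative to DMSO vehicle.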

| SMILES | IC50 (RBE cells) [nM] | IC50 (SRC) [nM] | IC50 [1] [nM] |
| --- | --- | --- | --- |
| C=CC(=O)N[C@H](C)C(=O)N1CCC(C#Cc2c(-c3ccc(Oc4ccccc4)cc3)c3c(N)ncnc3n2[C@H]2CCOC2)CC1 [II-185, N-((R)-1-(4-((4-amino-5-(4-phenoxyphenyl)-7-((S)-tetrahydrofuran-3-yl)-7H-pyrrolo[2,3-d]pyrimidin-6-yl)ethynyl)piperidin-1-yl)-1-oxopropan-2-yl)acrylamide] | 1000 to 10000 | 10 to 1000 | 1000 to 10000 |
| C=CC(=O)N1CCC(N2CC(C#Cc3c(-c4ccc(Oc5ccccc5)cc4)c4c(N)ncnc4n3C)C2)C[C@@H]1COC (stereo partly drawn) [II-186, 1-((2R)-4-(3-((4-amino-7-methyl-5-(4-phenoxyphenyl)-7H-pyrrolo[2,3-d]pyrimidin-6-yl)ethynyl)azetidin-1-yl)-2-(methoxymethyl)piperidin-1-yl)prop-2-en-1-one] | ≤ 10 | ≤ 10 | ≤ 10 |
| COC/C=C/C(=O)N1CCC(N2CC(C#Cc3c(-c4ccc(Oc5ccccc5)cc4)c4c(N)ncnc4n3C)C2)CC1 [II-187, (E)-1-(4-(3-((4-amino-7-methyl-5-(4-phenoxyphenyl)-7H-pyrrolo[2,3-d]pyrimidin-6-yl)ethynyl)azetidin-1-yl)piperidin-1-yl)-4-methoxybut-2-en-1-one] | ≤ 10 | 10 to 1000 | ≤ 10 |
| CN(C)CCC(=O)N1CCC(C#Cc2c(-c3ccc(Oc4ccccc4)cc3)c3c(N)ncnc3n2C)CC1 [II-188] | 10 to 1000 | 10 to 1000 | 10 to 1000 |
| C=CC(=O)N1CCC(N2CC(C#Cc3c(-c4ccc(Oc5ccccc5)cc4)c4c(N)ncnc4n3CCOC)C2)CC1 [II-189, 1-(4-(3-((4-amino-7-(2-methoxyethyl)-5-(4-phenoxyphenyl)-7H-pyrrolo[2,3-d]pyrimidin-6-yl)ethynyl)azetidin-1-yl)piperidin-1-yl)prop-2-en-1-one] | 1000 to 10000 | 10 to 1000 | 1000 to 10000 |
| C=CC(=O)N1CCC(N2CC(C#Cc3c(-c4ccc(Oc5ccccc5)cc4)c4c(N)ncnc4n3CCO)C2)CC1 [II-190, 1-(4-(3-((4-amino-7-(2-hydroxyethyl)-5-(4-phenoxyphenyl)-7H-pyrrolo[2,3-d]pyrimidin-6-yl)ethynyl)azetidin-1-yl)piperidin-1-yl)prop-2-en-1-one] | ≤ 10 | 10 to 1000 | 10 to 1000 |
| COCCn1c(C#CC2CN(C(=O)/C=C/CN(C)C)C2)c(-c2ccc(Oc3ccccc3)cc2)c2c(N)ncnc21 [II-191, (E)-1-(3-((4-amino-7-(2-methoxyethyl)-5-(4-phenoxyphenyl)-7H-pyrrolo[2,3-d]pyrimidin-6-yl)ethynyl)azetidin-1-yl)-4-(dimethylamino) but-2-en-1-one] | 10 to 1000 | 10 to 1000 | 10 to 1000 |
| CN(C)C/C=C/C(=O)N1CC(C#Cc2c(-c3ccc(Oc4ccccc4)cc3)c3c(N)ncnc3n2C2CC(=O)N(C)C2)C1 (stereo not drawn) [II-192, (E)-4-(4-amino-6-((1-(4-(dimethylamino)but-2-enoyl)azetidin-3-yl)ethynyl)-5-(4-phenoxyphenyl)-7H-pyrrolo[2,3-d]pyrimidin-7-yl)-1-methylpyrrolidin-2-one] | 1000 to 10000 | 10 to 1000 | 1000 to 10000 |
| CN(C)C/C=C/C(=O)N1CC2(CC(C#Cc3c(-c4ccc(Oc5ccccc5)cc4)c4c(N)ncnc4n3C3CC(=O)N(C)C3)C2)C1 (stereo not drawn) [II-193, (E)-4-(4-amino-6-((2-(4-(dimethylamino)but-2-enoyl)-2-azaspiro[3.3]heptan-6-yl)ethynyl)-5-(4-phenoxyphenyl)-7H-pyrrolo[2,3-d]pyrimidin-7-yl)-1-methylpyrrolidin-2-one] | 1000 to 10000 | 10 to 1000 | 1000 to 10000 |
| CN(C)C/C=C/C(=O)N1CC(C#Cc2c(-c3ccc(Oc4ccccc4)cc3)c3c(N)ncnc3n2CCO)C1 [II-194, (E)-1-(3-((4-amino-7-(2-hydroxyethyl)-5-(4-phenoxyphenyl)-7H-pyrrolo[2,3-d]pyrimidin-6-yl)ethynyl)azetidin-1-yl)-4-(dimethylamino) but-2-en-1-one] | 10 to 1000 | 10 to 1000 | 10 to 1000 |
| C=CC(=O)N1CCC(N2CC(C#Cc3c(-c4ccc(Oc5ccccc5)cc4)c4c(N)ncnc4n3C)C2)C1 (stereo not drawn) [II-195, 1-(3-(3-((4-amino-7-methyl-5-(4-phenoxyphenyl)-7H-pyrrolo[2,3-d]pyrimidin-6-yl)ethynyl)azetidin-1-yl)pyrrolidin-1-yl)prop-2-en-1-one] | 10 to 1000 | 10 to 1000 | 10 to 1000 |
| C=CC(=O)NC1(C(=O)N2CCC(C#Cc3c(-c4ccc(Oc5ccccc5)cc4)c4c(N)ncnc4n3C)CC2)CN(C)C1 [II-196, N-(3-(4-((4-amino-7-methyl-5-(4-phenoxyphenyl)-7H-pyrrolo[2,3-d]pyrimidin-6-yl)ethynyl)piperidine-1-carbonyl)-1-methylazetidin-3-yl)acrylamide] | ≤ 10 | 10 to 1000 | ≤ 10 |
| C=CC(=O)N[C@H](CO)C(=O)N1CCC(C#Cc2c(-c3ccc(Oc4ccccc4)cc3)c3c(N)ncnc3n2C)CC1 [II-197] | 10 to 1000 | 10 to 1000 | 10 to 1000 |
| C=CC(=O)N[C@@H](CO)C(=O)N1CCC(C#Cc2c(-c3ccc(Oc4ccccc4)cc3)c3c(N)ncnc3n2C)CC1 [II-198] | ≤ 10 | ≤ 10 | ≤ 10 |
| C=CC(=O)N1CCC(N2CC(C#Cc3c(-c4ccc(Oc5cccc(C)n5)cc4)c4c(N)ncnc4n3C)C2)C[C@H]1CO (stereo partly drawn) [II-199, 1-((2S)-4-(3-((4-amino-7-methyl-5-(4-(6-methylpyridin-2-yloxy)phenyl)-7H-pyrrolo[2,3-d]pyrimidin-6-yl)ethynyl)azetidin-1-yl)-2-(hydroxymethyl)piperidin-1-yl)prop-2-en-1-one] | ≤ 10 | ≤ 10 | ≤ 10 |
| C=CC(=O)N[C@H](CO)C(=O)N1CCC(C#Cc2c(-c3ccc(Oc4cccc(C)n4)cc3)c3c(N)ncnc3n2C)CC1 [II-200, (R)-N-(1-(4-((4-amino-7-methyl-5-(4-((6-methylpyridin-2-yl)oxy)phenyl)-7H-pyrrolo[2,3-d]pyrimidin-6-yl)ethynyl)piperidin-1-yl)-3-hydroxy-1-oxopropan-2-yl)acrylamide] | 10 to 1000 | 10 to 1000 | 10 to 1000 |
| C=CC(=O)N1CC[C@@H](N2CC(C#Cc3c(-c4ccc(Oc5cccc(C)n5)cc4)c4c(N)ncnc4n3C)C2)[C@@H](F)C1 [II-201, 1-((3S,4R)-4-(3-((4-amino-7-methyl-5-(4-(6-methylpyridin-2-yloxy)phenyl)-7H-pyrrolo[2,3-d]pyrimidin-6-yl)ethynyl)azetidin-1-yl)-3-fluoropiperidin-1-yl)prop-2-en-1-one] | 10 to 1000 | 10 to 1000 | 10 to 1000 |
| C=CC(=O)N1CC[C@H](N2CC(C#Cc3c(-c4ccc(Oc5cccc(C)n5)cc4)c4c(N)ncnc4n3C)C2)[C@H](F)C1 [II-202, 1-((3R,4S)-4-(3-((4-amino-7-methyl-5-(4-(6-methylpyridin-2-yloxy)phenyl)-7H-pyrrolo[2,3-d]pyrimidin-6-yl)ethynyl)azetidin-1-yl)-3-fluoropiperidin-1-yl)prop-2-en-1-one] | 10 to 1000 | 10 to 1000 | 10 to 1000 |
| C=CC(=O)N1CCC(N2CC(F)(C#Cc3c(-c4ccc(Oc5cccc(C)n5)cc4)c4c(N)ncnc4n3C)C2)CC1 [II-203, 1-(4-[3-[2-(4-amino-7-methyl-5-[4-[(6-methylpyridin-2-yl)oxy]phenyl]-7H-pyrrolo [2,3-d]pyrimidin-6-yl)ethynyl]-3-fluoroazetidin-1-yl]piperidin-1-yl)prop-2-en-1-one] | 10 to 1000 | 10 to 1000 | 10 to 1000 |
| C=CC(=O)N1CCC(N2CC(F)(C#Cc3c(-c4ccc(Oc5cccc(C)n5)cc4)c4c(N)ncnc4n3C)C2)C[C@H]1CO (stereo partly drawn) [II-204, 1-((2S)-4-(3-((4-amino-7-methyl-5-(4-((6-methylpyridin-2-yl)oxy)phenyl)-7H-pyrrolo[2,3-d]pyrimidin-6-yl)ethynyl)-3-fluoroazetidin-1-yl)-2-(hydroxymethyl)piperidin-1-yl)prop-2-en-1-one] | 10 to 1000 | 10 to 1000 | 10 to 1000 |
| C=CC(=O)N1CC[C@@H](N2CC(F)(C#Cc3c(-c4ccc(Oc5ccccc5)cc4)c4c(N)ncnc4n3C)C2)C[C@H]1CO [II-205, 1-((2S,4R)-4-(3-((4-amino-7-methyl-5-(4-phenoxyphenyl)-7H-pyrrolo[2,3-d]pyrimidin-6-yl)ethynyl)-3-fluoroazetidin-1-yl)-2-(hydroxymethyl)piperidin-1-yl)prop-2-en-1-one] | 10 to 1000 | 10 to 1000 | 10 to 1000 |
| C=CC(=O)N1C[C@@H]2[C@@H](C#Cc3c(-c4ccc(Oc5cccc(C)n5)cc4)c4c(N)ncnc4n3C)[C@@H]2C1 [II-206, 1-[(1R,5S,6S)-6-[2-(4-amino-7-methyl-5-[4-[(6-methylpyridin-2-yl)oxy]phenyl]-7H-pyrrolo[2,3-d]pyrimidin-6-yl)ethynyl]-3-azabicyclo[3.1.0]hexan-3-yl]prop-2-en-1-one] | ≤ 10 | 10 to 1000 | ≤ 10 |
| CN(C)C/C=C/C(=O)N1C[C@@H]2[C@@H](C#Cc3c(-c4ccc(Oc5ccccc5)cc4)c4c(N)ncnc4n3C)[C@@H]2C1 [II-207] | 10 to 1000 | 10 to 1000 | 10 to 1000 |

From patent US20250154154A1 (Relay Binney Street, 2nd Floor, priority 2020, published 2025)
